In article PMC10341786 (International Journal of Molecular Sciences, 2023):

Experiments:
TBEV = experiment: microbe, parasite or virus in culture; type: cell-based, Tick-borne encephalitis virus strain Absettarov; settings: Tick-borne encephalitis virus, PEK, read-out: TBEV EC50
in vitro [1] = settings: pig
in vitro [2] = settings: pig; remark: listed apart in the source
WNV = experiment: microbe, parasite or virus in culture; type: cell-based, West Nile virus strain Strix nebulosa-12; settings: West Nile virus, Vero, read-out: WNV EC50
in vitro [3] = settings: African green monkey
in vitro [4] = settings: African green monkey; remark: listed apart in the source

Row | Compound | EC50 (TBEV) | CC50 (in vitro [1]) | CC50 (in vitro [2]) | EC50 (WNV) | CC50 (in vitro [3]) | CC50 (in vitro [4]) | melting point
1 | CS(=O)(=O)NC1=NOC2(CCCCCCC2)C1 [3a] | > 100 µM | > 50 µM | > 50 µM | 31 ± 2 µM | > 50 µM | > 50 µM | –
2 | O=S(=O)(NC1=NOC2(CCCCCCC2)C1)c1ccccc1 [3c] | > 50 µM | > 50 µM | > 50 µM | 25 ± 7 µM | > 50 µM | > 50 µM | –
3 | Cc1ccc(S(=O)(=O)NC2=NOC3(CCCCCCC3)C2)cc1 [3d] | > 50 µM | > 50 µM | > 50 µM | 14 ± 5 µM | > 50 µM | > 50 µM | –
4 | Cc1cc(C)c(S(=O)(=O)NC2=NOC3(CCCCCCC3)C2)c(C)c1 [3e] | 18 ± 7 µM | > 50 µM | > 50 µM | 22 ± 4 µM | > 50 µM | > 50 µM | –
5 | O=S(=O)(NC1=NOC2(CCCCCCC2)C1)c1ccc2c(c1)OCCO2 [3f] | > 50 µM | > 50 µM | > 50 µM | 18 ± 6 µM | > 50 µM | > 50 µM | –
6 | O=S(=O)(NC1=NOC2(CCCCCCC2)C1)c1ccc(F)cc1F [3g] | > 100 µM | > 50 µM | > 50 µM | 28.4 ± 2.2 µM | > 50 µM | > 50 µM | –
7 | O=[N+]([O-])c1ccccc1S(=O)(=O)NC1=NOC2(CCCCCCC2)C1 [3h] | 28 ± 7 µM | > 50 µM | > 50 µM | 21.5 ± 0.9 µM | > 50 µM | > 50 µM | –
8 | O=S(=O)(NC1=NOC2(CCCCCCC2)C1)c1cccs1 [3k] | > 100 µM | > 50 µM | > 50 µM | 6.1 ± 1.3 µM | > 50 µM | > 50 µM | –
9 | O=S(=O)(NC1=NOC2(CCCCCCC2)C1)c1cccnc1 [3l] | > 100 µM | > 50 µM | > 50 µM | 11 ± 7 µM | > 50 µM | > 50 µM | –
10 | CS(=O)(=O)N(C1=NOC2(CCCCCCC2)C1)S(C)(=O)=O [4a, N-(Methylsulfonyl)-N-(1-oxa-2-azaspiro[4.7]dodec-2-en-3-yl)methanesulfonamide] | 27 ± 12 µM | > 50 µM | > 50 µM | 10 ± 6 µM | > 50 µM | > 50 µM | 139 to 141 °C
11 | O=S(=O)(Cc1ccccc1)N(C1=NOC2(CCCCCCC2)C1)S(=O)(=O)Cc1ccccc1 [4b, N-(Benzylsulfonyl)-1-phenyl-N-(1-oxa-2-azaspiro[4.7]dodec-2-en-3-yl)methanesulfonamide] | > 50 µM | > 50 µM | > 50 µM | 16 ± 8 µM | > 50 µM | > 50 µM | 176 to 177 °C
12 | O=S(=O)(c1ccccc1)N(C1=NOC2(CCCCCCC2)C1)S(=O)(=O)c1ccccc1 [4c, N-(Phenylsulfonyl)-N-(1-oxa-2-azaspiro[4.7]dodec-2-en-3-yl)benzenesulfonamide] | 9 ± 2 µM | > 50 µM | > 50 µM | 2.6 ± 1.4 µM | > 50 µM | > 50 µM | 139 to 141 °C
13 | Cc1ccc(S(=O)(=O)N(C2=NOC3(CCCCCCC3)C2)S(=O)(=O)c2ccc(C)cc2)cc1 [4d, 4-Methyl-N-(1-oxa-2-azaspiro[4.7]dodec-2-en-3-yl)-N-tosylbenzenesulfonamide] | 21 ± 13 µM | > 50 µM | > 50 µM | 3 ± 1.9 µM | > 50 µM | > 50 µM | 151 to 153 °C
14 | Cc1cc(C)c(S(=O)(=O)N(C2=NOC3(CCCCCCC3)C2)S(=O)(=O)c2c(C)cc(C)cc2C)c(C)c1 [4e, N-(Mesitylsulfonyl)-2,4,6-trimethyl-N-(1-oxa-2-azaspiro[4.7]dodec-2-en-3-yl)benzenesulfonamide] | 12 ± 7 µM | > 50 µM | > 50 µM | 4.8 ± 1 µM | > 50 µM | > 50 µM | 180 to 182 °C
15 | O=S(=O)(c1ccc2c(c1)OCCO2)N(C1=NOC2(CCCCCCC2)C1)S(=O)(=O)c1ccc2c(c1)OCCO2 [4f, N-((2,3-Dihydrobenzo[b][1, 4]dioxin-6-yl)sulfonyl)-N-(1-oxa-2-azaspiro[4.7]dodec-2-en-3-yl)-2,3-dihydrobenzo[b][1, 4]dioxine-6-sulfonamide] | 13 ± 6 µM | > 50 µM | > 50 µM | 7.1 ± 1 µM | > 50 µM | > 50 µM | 191 to 193 °C
16 | O=S(=O)(c1ccc(F)cc1F)N(C1=NOC2(CCCCCCC2)C1)S(=O)(=O)c1ccc(F)cc1F [4g, N-((2,4-Difluorophenyl)sulfonyl)-2,4-difluoro-N-(1-oxa-2-azaspiro[4.7]dodec-2-en-3-yl)benzenesulfonamide] | > 50 µM | > 50 µM | > 50 µM | 9.8 ± 2.6 µM | > 50 µM | > 50 µM | 61 to 62 °C
17 | O=S(=O)(c1ccc2ccccc2c1)N(C1=NOC2(CCCCCCC2)C1)S(=O)(=O)c1ccc2ccccc2c1 [4j, N-(Naphthalen-2-ylsulfonyl)-N-(1-oxa-2-azaspiro[4.7]dodec-2-en-3-yl)naphthalene-2-sulfonamide] | 17 ± 3 µM | > 50 µM | > 50 µM | 1.3 ± 0.5 µM | > 50 µM | > 50 µM | 160 to 161 °C
18 | O=S(=O)(c1cccs1)N(C1=NOC2(CCCCCCC2)C1)S(=O)(=O)c1cccs1 [4k, N-(1-Oxa-2-azaspiro[4.7]dodec-2-en-3-yl)-N-(thiophen-2-ylsulfonyl)thiophene-2-sulfonamide] | > 50 µM | > 50 µM | > 50 µM | 10 ± 4 µM | > 50 µM | > 50 µM | 147 °C
19 | O=S(=O)(c1cccnc1)N(C1=NOC2(CCCCCCC2)C1)S(=O)(=O)c1cccnc1 [4l, N-(Pyridin-3-ylsulfonyl)-N-(1-oxa-2-azaspiro[4.7]dodec-2-en-3-yl)pyridine-3-sulfonamide] | 15 ± 4 µM | > 50 µM | > 50 µM | 8 ± 4 µM | > 50 µM | > 50 µM | 151 to 152 °C
20 | O=S(=O)(Cc1ccccc1)N(C1=NOC2CCCCCCC12)S(=O)(=O)Cc1ccccc1 (centres unmarked) [5b, N-(Benzylsulfonyl)-N-(3a,4,5,6,7,8,9,9a-octahydrocycloocta[d]isoxazol-3-yl)-1-phenylmethanesulfonamide] | 21.7 ± 2.8 µM | > 50 µM | > 50 µM | 6.3 ± 1.2 µM | > 50 µM | > 50 µM | 198 to 199 °C
21 | O=S(=O)(c1ccccc1)N(C1=NOC2CCCCCCC12)S(=O)(=O)c1ccccc1 (centres unmarked) [5c, N-(3a,4,5,6,7,8,9,9a-Octahydrocycloocta[d]isoxazol-3-yl)-N-(phenylsulfonyl)benzenesulfonamide] | > 50 µM | > 50 µM | > 50 µM | 18 ± 4 µM | > 50 µM | > 50 µM | 107 to 108 °C
22 | Cc1ccc(S(=O)(=O)N(C2=NOC3CCCCCCC23)S(=O)(=O)c2ccc(C)cc2)cc1 (centres unmarked) [5d, 4-Methyl-N-(3a,4,5,6,7,8,9,9a-octahydrocycloocta[d]isoxazol-3-yl)-N-tosylbenzenesulfonamide] | 34 ± 4 µM | > 50 µM | > 50 µM | 14 ± 8 µM | > 50 µM | > 50 µM | 113 to 114 °C
23 | Cc1cc(C)c(S(=O)(=O)N(C2=NOC3CCCCCCC23)S(=O)(=O)c2c(C)cc(C)cc2C)c(C)c1 (centres unmarked) [5e, N-(Mesitylsulfonyl)-2,4,6-trimethyl-N-(3a,4,5,6,7,8,9,9a-octahydrocycloocta[d]isoxazol-3-yl)benzenesulfonamide] | 10 ± 5 µM | > 50 µM | > 50 µM | 4 ± 0.6 µM | > 50 µM | > 50 µM | 148 to 149 °C
24 | O=S(=O)(c1ccc2c(c1)OCCO2)N(C1=NOC2CCCCCCC12)S(=O)(=O)c1ccc2c(c1)OCCO2 (centres unmarked) [5f, N-((2,3-Dihydrobenzo[b][1, 4]dioxin-6-yl)sulfonyl)-N-(3a,4,5,6,7,8,9,9a-octahydrocycloocta[d]isoxazol-3-yl)-2,3-dihydrobenzo[b][1, 4]dioxine-6-sulfonamide] | 29 ± 7 µM | > 50 µM | > 50 µM | 16 ± 10 µM | > 50 µM | > 50 µM | 129 to 130 °C
25 | O=S(=O)(c1ccc(F)cc1F)N(C1=NOC2CCCCCCC12)S(=O)(=O)c1ccc(F)cc1F (centres unmarked) [5g, N-((2,4-difluorophenyl)sulfonyl)-2,4-difluoro-N-(3a,4,5,6,7,8,9,9a-octahydrocycloocta[d]isoxazol-3-yl)benzenesulfonamide] | 33 ± 15 µM | > 50 µM | > 50 µM | 12 ± 6 µM | > 50 µM | > 50 µM | 129 to 131 °C
26 | O=[N+]([O-])c1ccccc1S(=O)(=O)N(C1=NOC2CCCCCCC12)S(=O)(=O)c1ccccc1[N+](=O)[O-] (centres unmarked) [5h, 2-Nitro-N-((2-nitrophenyl)sulfonyl)-N-(3a,4,5,6,7,8,9,9a-octahydrocycloocta[d]isoxazol-3-yl)benzenesulfonamide] | 12 ± 6 µM | > 50 µM | > 50 µM | 17 ± 3 µM | – | – | 153 to 154 °C
27 | NC(=O)c1nc(F)c[nH]c1=O [Favipiravir, reference compound] | – | > 1000 µM | – | 102 ± 28 µM | > 1000 µM | > 1000 µM | –
28 | Nc1onc(C(=O)OCC23CC4CC(CC(C4)C2)C3)c1CCc1ccccc1 [compound 6, reference compound] | 2.29 ± 0.17 µM | > 100 µM | > 100 µM | – | – | > 100 µM | –
